Laboratory results: paper PMC5029940, “High Throughput Random Mutagenesis and Single Molecule Real Time Sequencing of the Muscle Nicotinic Acetylcholine Receptor” (PLoS ONE, 2016)

Columns and labels:
Type in all cases: cell-based
[1] = molecular target: T1, human muscle nicotinic acetylcholine receptor (nAChR), adult form, (α1)2β1δε (Homo sapiens, UniProt P02708+Q04844+Q07001, P02708:Y233H); assay: Fluo-4 Ca2+ flux, FLIPR
T1 construct: gene CHRNA1; full-length untagged subunits; CMV-alpha1 plasmid plus EF1alpha beta1-delta-epsilon triple plasmid, transient in HEK293; heteropentamer; with Acetylcholine receptor subunit beta
Text: (§1) Fluo-4 Ca2+ flux, FLIPR on human muscle nicotinic acetylcholine receptor (nAChR), adult form, (α1)2β1δε

[2] = molecular target: T2, human muscle nicotinic acetylcholine receptor (nAChR), adult form, (α1)2β1δε (Homo sapiens, UniProt P02708+Q04844+Q07001); assay: Fluo-4 Ca2+ flux, FLIPR; details: read-out: α1-Wt / EC50
T2 construct: gene CHRNA1; full-length untagged subunits; CMV-alpha1 plasmid plus EF1alpha beta1-delta-epsilon triple plasmid, transient in HEK293; heteropentamer; with Acetylcholine receptor subunit beta
Text: as §1

[3] = molecular target: T3, human muscle nicotinic acetylcholine receptor (nAChR), adult form, (α1)2β1δε (Homo sapiens, UniProt P02708+Q04844+Q07001, P02708:V275M); assay: Fluo-4 Ca2+ flux, FLIPR
T3 construct: gene CHRNA1; full-length untagged subunits; CMV-alpha1 plasmid plus EF1alpha beta1-delta-epsilon triple plasmid, transient in HEK293; heteropentamer; with Acetylcholine receptor subunit beta
Text: as §1

[4] = molecular target: T4, human muscle nicotinic acetylcholine receptor (nAChR), adult form, (α1)2β1δε (Homo sapiens, UniProt P02708+Q04844+Q07001, P02708:Y233N); assay: Fluo-4 Ca2+ flux, FLIPR
T4 construct: gene CHRNA1; full-length untagged subunits; CMV-alpha1 plasmid plus EF1alpha beta1-delta-epsilon triple plasmid, transient in HEK293; heteropentamer; with Acetylcholine receptor subunit beta
Text: as §1

[5] = molecular target: T2, human muscle nicotinic acetylcholine receptor (nAChR), adult form, (α1)2β1δε; assay: Fluo-4 Ca2+ flux, FLIPR, inhibition of epibatidine response
Target sequence in this assay (P02708 21-457): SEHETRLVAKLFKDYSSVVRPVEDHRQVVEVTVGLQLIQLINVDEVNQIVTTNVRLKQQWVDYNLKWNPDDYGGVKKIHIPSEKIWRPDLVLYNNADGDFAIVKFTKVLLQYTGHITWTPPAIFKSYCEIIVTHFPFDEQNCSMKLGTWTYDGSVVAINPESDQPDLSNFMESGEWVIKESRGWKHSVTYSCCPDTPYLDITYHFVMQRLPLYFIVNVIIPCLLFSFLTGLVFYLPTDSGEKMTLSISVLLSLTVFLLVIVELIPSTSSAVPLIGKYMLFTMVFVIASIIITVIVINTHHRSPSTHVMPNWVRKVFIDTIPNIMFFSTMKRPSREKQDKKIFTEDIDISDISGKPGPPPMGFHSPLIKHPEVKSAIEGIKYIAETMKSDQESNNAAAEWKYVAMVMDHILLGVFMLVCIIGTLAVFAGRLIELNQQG
Target sequence in this assay (Q07001 22-517): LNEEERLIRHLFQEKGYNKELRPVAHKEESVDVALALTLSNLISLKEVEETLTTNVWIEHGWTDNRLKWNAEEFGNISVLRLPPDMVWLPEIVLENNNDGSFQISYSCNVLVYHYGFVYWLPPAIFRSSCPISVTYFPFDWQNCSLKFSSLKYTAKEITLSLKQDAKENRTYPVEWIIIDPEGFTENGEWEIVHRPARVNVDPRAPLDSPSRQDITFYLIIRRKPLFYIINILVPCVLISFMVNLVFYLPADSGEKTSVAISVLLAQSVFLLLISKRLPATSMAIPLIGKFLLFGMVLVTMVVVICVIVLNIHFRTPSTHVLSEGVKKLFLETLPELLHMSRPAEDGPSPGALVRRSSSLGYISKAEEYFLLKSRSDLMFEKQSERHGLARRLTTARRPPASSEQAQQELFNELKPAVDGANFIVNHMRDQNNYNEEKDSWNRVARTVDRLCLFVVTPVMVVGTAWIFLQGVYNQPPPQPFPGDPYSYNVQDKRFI
Target sequence in this assay (Q04844 21-493): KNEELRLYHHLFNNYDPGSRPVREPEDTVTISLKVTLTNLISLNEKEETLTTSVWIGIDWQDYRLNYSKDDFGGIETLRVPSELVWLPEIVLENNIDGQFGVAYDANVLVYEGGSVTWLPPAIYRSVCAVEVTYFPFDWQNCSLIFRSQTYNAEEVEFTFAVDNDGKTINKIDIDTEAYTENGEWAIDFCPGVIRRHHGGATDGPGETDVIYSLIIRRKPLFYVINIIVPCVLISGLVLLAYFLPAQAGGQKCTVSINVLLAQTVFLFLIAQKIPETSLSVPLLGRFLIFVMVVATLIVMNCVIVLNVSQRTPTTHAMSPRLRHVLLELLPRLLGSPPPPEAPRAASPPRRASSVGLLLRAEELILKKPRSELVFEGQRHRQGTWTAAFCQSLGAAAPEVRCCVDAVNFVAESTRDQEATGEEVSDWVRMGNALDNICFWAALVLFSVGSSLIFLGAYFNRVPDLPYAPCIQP
Target sequence in this assay (P11230 24-501 partner): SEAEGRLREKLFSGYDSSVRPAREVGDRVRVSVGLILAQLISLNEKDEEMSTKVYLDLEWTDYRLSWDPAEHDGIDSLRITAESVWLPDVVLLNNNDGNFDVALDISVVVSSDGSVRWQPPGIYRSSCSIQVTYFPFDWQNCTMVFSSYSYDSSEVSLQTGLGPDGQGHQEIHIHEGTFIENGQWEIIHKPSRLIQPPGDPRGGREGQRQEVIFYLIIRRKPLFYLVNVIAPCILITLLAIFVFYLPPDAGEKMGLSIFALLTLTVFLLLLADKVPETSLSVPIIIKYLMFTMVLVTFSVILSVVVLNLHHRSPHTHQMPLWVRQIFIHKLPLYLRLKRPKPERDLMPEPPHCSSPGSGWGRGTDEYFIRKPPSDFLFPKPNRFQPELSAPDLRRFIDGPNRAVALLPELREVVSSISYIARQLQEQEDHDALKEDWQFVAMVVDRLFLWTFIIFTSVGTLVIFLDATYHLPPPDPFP

Which results are given for O=c1cccc2n1C[C@@H]1CNC[C@H]2C1 [Cytisine]?
EC50 [1]: 650 ± 93 nM; EC50 [2]: 2350 ± 367 nM; EC50 [3]: 592 ± 153 nM; EC50 [4]: 1180 ± 76 nM

With C[N+]1(C)CCN(c2ccccc2)CC1 [DMPP] as the compound, how does the EC50 [1] read?
The EC50 was 161 ± 10 nM.

And the EC50 [2]?
Its EC50 is 1630 ± 203 nM.

What about the EC50 [3] of the same compound?
The EC50 was 67 ± 15 nM.

And the EC50 [4]?
The EC50 was 705 ± 22 nM.

Which results are given for CN1CCC[C@H]1c1cccnc1 [Nicotine]?
EC50 [1]: 1390 ± 117 nM; EC50 [2]: 3650 ± 1040 nM; EC50 [3]: 557 ± 226 nM; EC50 [4]: 1380 ± 96 nM

Which IC50 [5] does the source give for COc1cc2c3cc1Oc1cc(ccc1O)C[C@@H]1c4c(cc(OC)c(O)c4Oc4ccc(cc4)C[C@@H]3N(C)CC2)CC[N+]1(C)C [tubocurarine] here?
Its IC50 is 3200 ± 2400 nM.
